For 29 compounds, IC50 results are on record in patent publication US20240216357A1 (SICHUAN HUIYU PHARMACEUTICAL CO., LTD., priority 2021, published 2024).

One assay concerns the target LSD1 (Homo sapiens (Human), UniProt O60341). As to the kind of experiment: LSD1 enzyme activity detection (HTRF). It counts as biochemical. To be noted: read-out: Inhibition of enzymatic activity of LSD1 IC50.
The next assay deals with NCI-H1417 cells. Description: In vitro cell proliferation detection (CellTiter-Glo, 7 days). It counts as cell-based.
Setting [1] is: Homo sapiens, 168 h, NCI-H1417 cells, 7 days, CellTiter-Glo, read-out: NCI-H1417 proliferation inhibition IC50.

Counter-ions that a name gives are not always drawn. Like-named read-outs stand apart in the source and are kept apart here.

For `COc1ccc(-c2c(O)cc(N(C)CCCN)nc2-c2ccc(C#N)c(F)c2)cc1O` [Example 62], the IC50 on LSD1 (HTRF, H3K4me1 substrate) is 21 nM; in the assay with NCI-H1417 cells (setting [1]) it was 224 nM.
For `CC(C)(O)Cc1ccc(-c2c(O)cc(N3CCC(N)CC3)nc2-c2ccc(C#N)c(F)c2)cc1F` [Example 39, 4-(6-(4-aminopiperidin-1-yl)-3-(3-fluoro-4-(2-hydroxy-2-methylpropyl)phenyl)-4-hydroxypyridin-2-yl)-2-fluorobenzonitrile hydrochloride], the IC50 on LSD1 (HTRF, H3K4me1 substrate) is 21.5 ± 7.6 nM; with NCI-H1417 cells (setting [1]), 121 nM.
With `CN(CCCN)c1nc(-c2ccc(C#N)c(F)c2)c(-c2ccc(OC(F)(F)F)c(O)c2)c2nccn12` [Example 153, 4-(5-((3-aminopropyl) (methyl)amino)-8-(3-hydroxy-4-(trifluoromethoxy)phenyl)imidazolo [1,2-c]pyrimidin-7-yl)-2-fluorobenzonitrile], the IC50 at LSD1 (HTRF, H3K4me1 substrate) came to 5.2 ± 0.5 nM; in the assay with NCI-H1417 cells (setting [1]), 31.6 nM.
The matching figures for `N#Cc1ccc(-c2c(-c3ccc(N4CCOCC4)c(O)c3)cnc(N3CCC(N)CC3)c2C#N)cc1F` [Example 85, 2-(4-aminopiperidin-1-yl)-4-(4-cyano-3-fluorophenyl)-5-(3-hydroxy-4-morpholinophenyl) nicotinonitrile hydrochloride]: 0.6 nM and 0.76 nM.
The like results for `COCCNC1CCN(c2cc(O)c(-c3ccc(OC)c(F)c3)c(-c3ccc(C#N)c(F)c3)n2)CC1` [Example 49, 2-fluoro-4-(3-(3-fluoro-4-methoxyphenyl)-4-hydroxy-6-(4-((2-methoxyethyl)amino)piperidin-1-yl)pyridin-2-yl)benzonitrile] were, in that order, 61.4 nM and 228 nM.
The like results for `N#Cc1ccc(-c2nc(N3C4CCC3CC(N)C4)n3ccnc3c2-c2cc3c(cc2F)CCN3)cc1F` (stereo not drawn) [Example 171] were, in that order, 1.9 ± 1.5 nM and 6 nM.
In the case of `COc1ccc(-c2c(-c3ccc(C#N)c(F)c3)nc(N3CCC(N)CC3)c(C)c2OC)cc1O` [Example 101, 4-(6-(4-aminopiperidin-1-yl)-3-(3-hydroxy-4-methoxyphenyl)-4-methoxy-5-methylpyridin-2-yl)-2-fluorobenzonitrile], the IC50 on LSD1 (HTRF, H3K4me1 substrate) worked out at 1 ± 0.2 nM; in the assay with NCI-H1417 cells (setting [1]) it was 0.917 nM.
As for `COc1ccc(-c2c(-c3ccc(C#N)c(F)c3)nc(N3CCC[C@@H](N)C3)n3ccnc23)cc1O` [Example 139, (R)-4-(5-(3-aminopiperidin-1-yl)-8-(3-hydroxy-4-methoxyphenyl)imidazolo[1,2-c]pyrimidin-7-yl)-2-fluorobenzonitrile hydrochloride], the IC50 at LSD1 (HTRF, H3K4me1 substrate) was found to be 0.69 ± 0.18 nM; with NCI-H1417 cells (setting [1]) it was 2.83 nM.
The matching figures for `N#Cc1ccc(-c2nc(N3CCC(N)CC3)cc(O)c2-c2cc(O)c(F)c(F)c2)cc1F` [Example 46, 4-(6-(4-aminopiperidin-1-yl)-3-(3,4-difluoro-5-hydroxyphenyl)-4-hydroxypyridin-2-yl)-2-fluorobenzonitrile]: 2 ± 1.4 nM and 96.4 nM.
The matching figures for `COc1ccc(C#Cc2c(O)cc(N3CCC(N)CC3)nc2-c2ccc(C#N)c(F)c2)cc1F` [Example 27]: 77.5 nM and 446 nM.
Turning to `COC(=O)C1CCN(C(=O)c2cc(CN[C@@H]3C[C@H]3c3ccc(F)cc3)nc(-c3ccc(-n4cccn4)cc3)n2)CC1` [Example 231], the IC50 was determined as 22.5 nM at LSD1 (HTRF, H3K4me1 substrate) and 30.2 nM in the assay on NCI-H1417 cells (setting [1]).
The like results for `COc1ccc(-c2c(C)nc(N3CCC(N)CC3)c(C#N)c2-c2ccc(C#N)c(F)c2)cc1O` [Example 276, 2-(4-aminopiperidin-1-yl)-4-(4-cyano-3-fluorophenyl)-5-(3-hydroxy-4-methoxyphenyl)-6-meth ylpyridine-3-carbonitrile] were, in that order, 0.1 ± 0.01 nM and 1.1 ± 0.7 nM.
The like results for `CS(=O)(=O)N1CCN(C(=O)c2cc(CCN[C@@H]3C[C@H]3c3ccc(F)cc3)nc(-c3ccc(-n4cccn4)cc3)c2)CC1` [Example 255, (2-(4-(1H-pyrazol-1-yl)phenyl)-6-(2-(((1R,2S)-2-(4-fluorophenyl)cyclopropyl)amino)ethyl)pyridin-4-yl) (4-(methylsulfonyl)piperazin-1-yl)methanone] were, in that order, 172 nM and 29.1 nM.
Take `N#Cc1ccc(-c2nc(N3CCC(N)CC3)cc(O)c2-c2ccc(OC(F)(F)F)c(O)c2)cc1F` [Example 29, 4-(6-(4-aminopiperidin-1-yl)-4-hydroxy-3-(3-hydroxy-4-(trifluoromethoxy)phenyl)pyridin-2-yl)-2-fluorobenzonitrile hydrochloride]: the IC50 on LSD1 (HTRF, H3K4me1 substrate) is 3.38 nM; with NCI-H1417 cells (setting [1]) it was 11.8 nM.
`Cc1noc2cc(-c3oc(C(=O)N4C5CCC4CC(N)C5)cc3-c3ccc(C#N)c(F)c3)c(F)cc12` (stereo not drawn) [Example 219, 4-(5-(3-amino-8-azabicyclo[3.2.1]octane-8-carbonyl)-2-(5-fluoro-3-methylbenzo[d]isoxazol-6-yl)furan-3-yl)-2-fluorobenzonitrile hydrochloride]: the IC50 at LSD1 amounted to 7.3 ± 0.46 nM; with NCI-H1417 cells (setting [1]), 95.3 nM.
Consider `Cc1ccc(-c2c(-c3ccc(C#N)c(F)c3)nc(N3C4CCC3CC(N)C4)n3ccnc23)cc1O` (stereo not drawn) [Example 156, 4-(5-(3-amino-8-azabicyclo[3.2.1]octane-8-yl)-8-(3-hydroxy-4-methylphenyl)imidazolo[1,2-c]pyrimidin-7-yl)-2-fluorobenzo nitrile hydrochloride], for which the IC50 on LSD1 (HTRF, H3K4me1 substrate) was determined as 0.2 ± 0.06 nM; with NCI-H1417 cells (setting [1]), 0.447 nM.
The like results for `COc1ccc(C#Cc2c(-c3ccc(C#N)c(F)c3)nc(N3CCC(N)CC3)n3ccnc23)cc1F` [Example 122, 4-(5-(4-aminopiperidin-1-yl)-8-(3-fluoro-4-methoxyphenyl)ethynyl)imidazolo [1,2-c]pyrimidin-7-yl)-2-fluorobenzonitrile hydrochloride] were, in that order, 8.68 ± 0.76 nM and 30.2 nM.
The matching figures for `COc1ccc(-c2c(-c3ccc(C#N)c(F)c3)nc(N3CCC(N(C)C)CC3)n3ccnc23)cc1O` [Example 140, 4-(5-(4 (dimethylamino)piperidin-1-yl)-8-(3-hydroxy-4-methoxyphenyl)imidazolo[1,2-c]pyrimidin-7-yl)-2-fluorobenzonitrile]: 0.4 ± 0.1 nM and 0.2 ± 0.15 nM.
The like results for `CC(C)(O)C#Cc1ccc(-c2c(-c3ccc(C#N)c(F)c3)nc(N3CCC(N)CC3)n3ccnc23)cc1F` [Example 126, 4-(5-(4-aminopiperidin-1-yl)-8-(3-fluoro-4-(3-hydroxy-3-methyl-1-alkynyl-1-yl)phenyl)imidazolo[1,2-c]pyrimidin-7-yl)-2-fluorobenzonitrile hydrochloride] were, in that order, 15.9 nM and 21.3 nM.
Regarding `COc1ccc(Nc2c(O)cc(N3CCC(N)CC3)nc2-c2ccc(C#N)c(F)c2)cc1F` [Example 64, 4-(6-(4-aminopiperidin-1-yl)-3-(3-fluoro-4-methoxyphenyl)amino)-4-hydroxypyridin-2-yl)-2-flu orobenzonitrile hydrochloride], in the assay on NCI-H1417 cells (setting [1]), the IC50 came out at 344 nM.
The same measure, in the same setting: for `COc1ccc(-c2c(-c3ccc(C#N)c(F)c3)nc(N3CCC(N)CC3)c3c2cnn3C)cc1O` [Example 285, 4-(7-(4-aminopiperidin-1-yl)-4-(3-hydroxy-4-methoxyphenyl)-1-methyl-1H-pyrazolo[3,4-c]pyridin-5-yl)-2-fluorobenzonitrile] the value was 2.16 nM; for `COc1ccc(-c2nc(N3CCC(N)CC3)cc(C#N)c2-c2ccc(C#N)c(F)c2)cc1O` [Example 274, 6-(4-aminopiperidin-1-yl)-3-(4-cyano-3-fluorophenyl)-2-(3-hydroxy-4-methoxyphenyl)pyridin-4-carbonitrile], over 1000 nM.
As to `CS(=O)(=O)N1CCN(c2cc(CCCN[C@@H]3C[C@H]3c3ccc(F)cc3)nn(-c3ccc(C#N)cc3)c2=O)CC1` [Example 260, 4-(3-(3-((1R,2S)-2-(4-fluorophenyl)cyclopropyl)amino)-5-(4-(methylsulfonyl)piperazin-1-yl)-6-oxypyridazine-1 (6H)-yl)benzonitrile formate], the IC50 in the assay with NCI-H1417 cells (NCI-H1417 cells, 7 days, CellTiter-Glo, read-out: NCI-H1417 proliferation inhibition IC50) amounted to 46.1 nM.
As for `Cc1ccc(-c2c(-c3ccc(C#N)cc3)nc3c(N4CCC[C@@H](N)C4)nccn23)cc1` [Example 5, (R)-4-(8-(3-aminopiperidin-1-yl)-3-(p-tolyl)imidazo[1,2-a]pyrazin-2-yl)benzonitrile hydrochloride], in the assay with NCI-H1417 cells (Homo sapiens, NCI-H1417, 168 h, read-out: NCI-H1417 proliferation inhibition IC50(nM)), the IC50 came out at 165 nM.
For `Cc1ccc(-c2c(-c3ccc(C#N)cc3)cc3c(N4CCN(C)CC4)nncn23)cc1` [Example 195, 4-(1-(4-methylpiperazin-1-yl)-6-(p-tolyl)pyrrolo[1,2-d][1,2,4]triazine-7-yl)benzonitrile], at LSD1 (HTRF, H3K4me1 substrate), the IC50 came to 208 nM.
With `COc1ccc(-c2cc(C#N)c(N3CCC(N)CC3)nc2-c2ccc(C#N)c(F)c2)cc1O` [Example 282, 2-(4-aminopiperidin-1-yl)-6-(4-cyano-3-fluorophenyl)-5-(3-hydroxy-4-methoxyphenyl)nicotinon itrile hydrochloride], the IC50 in the assay with NCI-H1417 cells (setting [1]) was 136 nM.
Consider `N#Cc1ccc(-c2nc(N3CCC(N)CC3)cc(O)c2-c2ccc3[nH]nc(Cl)c3c2)cc1F` [Example 20, hydrochloride], for which the IC50 on LSD1 stood at 166 nM.
In the case of `COc1ccc(-c2c(-c3ccc(C#N)c(C#N)c3)nc(N3C4CCC3CC(N)C4)n3ccnc23)cc1F` (stereo not drawn) [Example 181, 4-(5-(3-amino-8-azabicyclo [3.2.1]octane-8-yl)-8-(3-fluoro-4-methoxyphenyl)imidazolo[1,2-c]pyrimidin-7-yl) phthalonitrile hydrochloride], on LSD1 (HTRF, H3K4me1 substrate), the IC50 was found to be 193 nM.
Same read-out and setting: for `Cc1noc2cc(-c3sc(C(=O)N4C5CCC4CC(N)C5)cc3-c3ccccn3)c(F)cc12` (stereo not drawn) [Example 210, (3-amino-8-azabicyclo [3.2.1]octan-8-yl)(5-(5-fluoro-3-methylbenzo[d]isoxazol-6-yl)-4-(pyridin-2-yl)thiophen-2-yl)methanone] the value was 5520 nM.
